Read-outs that look alike come from different tables or passages of the source.
Test system: SMN2-linked luciferase-reporter gene construct
Experiment: SMN splice reporter assay (SMN2-linked luciferase reporter, Example 10)
Type: cell-based
Excerpt: Cervical carcinoma cell lines were transformed with a SMN2-linked luciferase-reporter gene construct. The reporter is designed to detect shifts in the alternative splicing of SMN2 sequences. In particular, the reporter is constructed as a fusion of the alternatively spliced sequences of the SMN2 gene and the luciferase gene. Luciferase sequences are in the correct translational reading frame only when the SMN2 sequences are spliced according to the normal SMN1 mechanism (e.g., splicing to include exon 7), which allows for translation of the stable SMN protein. Compounds were tested in the assay by administering the compound to the cell line and detecting an increase in the luciferase activity. The assay is described in greater detail in Zhang et al., Gene Ther., 8, 1532-8 (2001). Compounds were administered as described in Lunn et al, Chem. & Biol, 11, 1489-1493 (2004).
The results are reported as a fold-increase over a baseline reading of transformed cells without any test compound.

[1] = SMN2-linked luciferase reporter, average
[2] = maximum fold increase of reporter signal, average, read-out: SMN Splice Reporter Assay (Example 10) Avg MaxFold Increase

| SMILES | maximal fold induction [2] | also measured |
| --- | --- | --- |
| CC(C(=O)O)c1ccc(N2Cc3cccc([N+](=O)[O-])c3C2=O)cc1 (stereo not shown) [ALB-111995] | 1.25 | EC50 [1]: 12 µM |
| CC(C(=O)O)c1ccc(N2Cc3c(N)cccc3C2=O)cc1 (stereo not shown) [ALB-111996a] | 1.11 | – |
| CC(C(=O)OC(C)(C)C)c1ccc(N2Cc3ccc(NS(C)(=O)=O)cc3C2=O)cc1 (stereo not shown) [ALB-111997] | – | EC50 [1]: 0.175 µM; maximal fold induction (read-out: SMN Splice Reporter Assay (Example 10) Avg MaxFold Increase, maximum fold increase of reporter signal, average, heading: SMN Splice Reporter Assay Avg MaxFold Increase): 1.01 |
| CC(C(=O)OC(C)(C)C)c1ccc(N2Cc3ccccc3C2=O)c(Br)c1 (stereo not shown) [ALB-111998] | 1.04 | – |
| CC(C(=O)O)c1ccc(N2Cc3ccccc3C2=O)cc1-c1ccc(Cl)c(Cl)c1 (stereo not shown) [ALB-111999] | 1.05 | – |
| Cc1ccc(-c2cc(N3Cc4ccccc4C3=O)ccc2C(C)C(=O)OC(C)(C)C)cc1 (stereo not shown) [ALB-112000] | 1.06 | – |
| COc1ccc(-c2cc(N3Cc4ccccc4C3=O)ccc2C(C)C(=O)OC(C)(C)C)cc1 (stereo not shown) [ALB-112001] | 1.02 | – |
| COc1ccc(-c2cc(N3Cc4ccccc4C3=O)ccc2C(C)C(=O)O)cc1 (stereo not shown) [ALB-112002] | 1.08 | – |
| Cc1ccc(-c2cc(N3Cc4ccccc4C3=O)ccc2C(C)C(=O)O)cc1 (stereo not shown) [ALB-112003] | 1.09 | EC50 [1]: 2.06 µM |
| CC(C(=O)O)c1ccc(N2Cc3ccccc3C2=O)c(Br)c1 (stereo not shown) [ALB-112004] | 1.08 | EC50 [1]: 1.25 µM |
| CC(C(=O)OC(C)(C)C)c1ccc(N2Cc3cccc(N)c3C2=O)cc1 (stereo not shown) [ALB-112061] | 1.27 | EC50 [1]: 3.74 µM |
| CC(C(=O)O)c1ccc(N2Cc3cccc(N)c3C2=O)cc1 (stereo not shown) [ALB-112062a] | 1.41 | EC50 [1]: 0.329 µM |
| CC(C(=O)O)c1ccc(N2Cc3cc(-c4cccs4)ccc3C2=O)cc1 (stereo not shown) [ALB-112063] | 1.2 | EC50 [1]: 0.909 µM |
| CC(C(=O)OC(C)(C)C)c1ccc(N2Cc3c(Br)cccc3C2=O)cc1 (stereo not shown) [ALB-112064] | 1.04 | – |
| CC(C(=O)OC(C)(C)C)c1ccc(N2Cc3cccc(Br)c3C2=O)cc1 (stereo not shown) [ALB-112065] | 1.22 | EC50 [1]: 1.34 µM |
| CC(C(=O)O)c1ccc(N2Cc3c(Br)cccc3C2=O)cc1 (stereo not shown) [ALB-112066] | 1.12 | EC50 [1]: 21.8 µM |
| CC(C(=O)O)c1ccc(N2Cc3cccc(Br)c3C2=O)cc1 (stereo not shown) [ALB-112067] | 1.36 | EC50 [1]: 9.71 µM |
| CC(C(=O)OC(C)(C)C)c1ccc(N2Cc3ccc(NS(=O)(=O)c4ccc(Cl)cc4)cc3C2=O)cc1 (stereo not shown) [ALB-112070] | 1.11 | – |
| CC(C(=O)O)c1ccc(N2Cc3ccc(NS(C)(=O)=O)cc3C2=O)cc1 (stereo not shown) [ALB-112071] | 1.07 | – |
| CC(C(=O)OC(C)(C)C)c1ccc(N2Cc3ccc(NS(=O)(=O)c4ccccc4)cc3C2=O)cc1 (stereo not shown) [ALB-112072] | – | maximal fold induction (SMN2-linked luciferase reporter, average maximum fold increase, read-out: SMN Splice Reporter Assay (Example 10) Avg MaxFold Increase): 1.07 |
| CCNC(=O)C(C)c1ccc(N2Cc3ccccc3C2=O)cc1 (stereo not shown) [ALB-112073] | 1.18 | – |

| SMILES | maximal fold induction [2] | also measured |
| --- | --- | --- |
| CC(C(=O)Nc1ccccc1)c1ccc(N2Cc3ccccc3C2=O)cc1 (stereo not shown) [ALB-112075] | 1.25 | EC50 [1]: 0.578 µM |
| CC(C)NC(=O)C(C)c1ccc(N2Cc3ccccc3C2=O)cc1 (stereo not shown) [ALB-112076] | 1.12 | EC50 [1]: 1.37 µM |
| CC(C(=O)N1CCOCC1)c1ccc(N2Cc3ccccc3C2=O)cc1 (stereo not shown) [ALB-112077] | 1.09 | – |
| CC(C(=O)N1CCCCC1)c1ccc(N2Cc3ccccc3C2=O)cc1 (stereo not shown) [ALB-112078] | 1.15 | – |
| CNC(=O)C(C)c1ccc(N2Cc3ccccc3C2=O)cc1 (stereo not shown) [ALB-112079] | 1.14 | – |
| CC(C(=O)OC(C)(C)C)c1ccc(N2Cc3ccccc3C2=O)c(-c2ccc(Cl)c(Cl)c2)c1 (stereo not shown) [ALB-112080] | 1.03 | – |
| Cc1ccc(-c2cc(C(C)C(=O)OC(C)(C)C)ccc2N2Cc3ccccc3C2=O)cc1 (stereo not shown) [ALB-112081] | 1.03 | – |
| COc1ccc(-c2cc(C(C)C(=O)OC(C)(C)C)ccc2N2Cc3ccccc3C2=O)cc1 (stereo not shown) [ALB-112082] | 1.12 | – |
| CCCc1cc(N2Cc3ccccc3C2=O)ccc1C(C)C(=O)O (stereo not shown) [ALB-112083] | 1.09 | – |
| CC(C(=O)O)c1ccc(N2Cc3ccccc3C2=O)cc1-c1cccs1 (stereo not shown) [ALB-112084] | 1.11 | – |
| Cc1ccc(-c2cc(C(C)C(=O)O)ccc2N2Cc3ccccc3C2=O)cc1 (stereo not shown) [ALB-112085.] | 1.08 | – |
| COc1ccc(-c2cc(C(C)C(=O)O)ccc2N2Cc3ccccc3C2=O)cc1 (stereo not shown) [ALB-112086] | 1.08 | – |
| CC(C(=O)OC(C)(C)C)c1ccc(N2Cc3ncccc3C2=O)cc1 (stereo not shown) [ALB-112087] | 1.05 | – |
| CC(C(=O)OC(C)(C)C)c1ccc(N2Cc3cccc(-c4ccc(Cl)c(Cl)c4)c3C2=O)cc1 (stereo not shown) [ALB-112149] | 1.06 | – |
| CC(C(=O)OC(C)(C)C)c1ccc(N2Cc3cccc(-c4ccccc4)c3C2=O)cc1 (stereo not shown) [ALB-112150] | 1.1 | – |
| Cc1ccc(-c2cccc3c2C(=O)N(c2ccc(C(C)C(=O)OC(C)(C)C)cc2)C3)cc1 (stereo not shown) [ALB-112151] | 1.11 | – |
| COc1ccc(-c2cccc3c2C(=O)N(c2ccc(C(C)C(=O)OC(C)(C)C)cc2)C3)cc1 (stereo not shown) [ALB-112152] | 1.04 | – |
| CC(C(=O)OC(C)(C)C)c1ccc(N2Cc3cccc(-c4ccc(Cl)cc4)c3C2=O)cc1 (stereo not shown) [ALB-112153] | 1.02 | – |
| CC(C(=O)OC(C)(C)C)c1ccc(N2Cc3cccc(-c4cccs4)c3C2=O)cc1 (stereo not shown) [ALB-112154] | 1.11 | – |
| CC(C(=O)O)c1ccc(N2Cc3cccc(-c4ccccc4)c3C2=O)cc1 (stereo not shown) [ALB-112155] | 1.19 | EC50 [1]: 26.3 µM |
| COc1ccc(-c2cccc3c2C(=O)N(c2ccc(C(C)C(=O)O)cc2)C3)cc1 (stereo not shown) [ALB-112156] | 1.27 | – |

| SMILES | maximal fold induction [2] | also measured |
| --- | --- | --- |
| CC(C(=O)O)c1ccc(N2Cc3cccc(-c4cccnc4)c3C2=O)cc1 (stereo not shown) [ALB-112157] | 1.2 | EC50 [1]: 20.5 µM |
| CC(C(=O)O)c1ccc(N2Cc3cccc(-c4cccs4)c3C2=O)cc1 (stereo not shown) [ALB-112158] | 1.24 | EC50 [1]: 11.4 µM |
| CC(C(=O)O)c1ccc(N2Cc3ccccc3C2=O)cc1-c1ccco1 (stereo not shown) [ALB-112160] | 1.02 | – |
| CC(C(=O)O)c1ccc(N2Cc3ccccc3C2=O)c(-c2ccc(Cl)c(Cl)c2)c1 (stereo not shown) [ALB-112161] | 1.1 | – |
| CC(C(=O)OC(C)(C)C)c1ccc(N2Cc3ccccc3C2=O)c(-c2ccc(Cl)cc2)c1 (stereo not shown) [ALB-112162] | 1.03 | – |
| CC(C(=O)OC(C)(C)C)c1ccc(N2Cc3ccccc3C2=O)c(-c2ccccc2)c1 (stereo not shown) [ALB-112163] | 1.03 | – |
| CC(C(=O)O)c1ccc(N2Cc3ccccc3C2=O)c(-c2ccc(Cl)cc2)c1 (stereo not shown) [ALB-112164] | 1.05 | – |
| CC(C(=O)O)c1ccc(N2Cc3ccccc3C2=O)c(-c2ccccc2)c1 (stereo not shown) [ALB-112165] | 1.15 | – |
| CC(C(=O)OC(C)(C)C)c1ccc(N2Cc3ccc(Nc4ccc(Cl)cc4)cc3C2=O)cc1 (stereo not shown) [ALB-112166] | 1.04 | – |
| CC(C(=O)OC(C)(C)C)c1ccc(N2Cc3ccc(N(C)C(=O)c4ccc(Cl)cc4)cc3C2=O)cc1 (stereo not shown) [ALB-112167] | 1.01 | – |
| CC(C(=O)OC(C)(C)C)c1ccc(N2Cc3ccc(Nc4ccccc4)cc3C2=O)cc1 (stereo not shown) [ALB-112168] | 1.15 | – |
| CC(C(=O)OC(C)(C)C)c1ccc(N2Cc3ccc(N(C)C(=O)c4ccccc4)cc3C2=O)cc1 (stereo not shown) [ALB-112169] | 1.07 | – |
| CNc1ccc2c(c1)C(=O)N(c1ccc(C(C)C(=O)OC(C)(C)C)cc1)C2 (stereo not shown) [ALB-112170] | 1.27 | EC50 [1]: 1.04 µM |
| CC(C(=O)OC(C)(C)C)c1ccc(N2Cc3ccccc3C2=O)c(-c2cccnc2)c1 (stereo not shown) [ALB-112172] | 1.04 | – |
| CC(C(=O)OC(C)(C)C)c1ccc(N2Cc3ccccc3C2=O)cc1-c1cccnc1 (stereo not shown) [ALB-112173] | 1 | – |
| Cc1ccc(-c2cccc3c2C(=O)N(c2ccc(C(C)C(=O)O)cc2)C3)cc1 (stereo not shown) [ALB-112174] | 1.18 | – |
| CC(C(=O)O)c1ccc(N2Cc3cccc(-c4ccc(Cl)cc4)c3C2=O)cc1 (stereo not shown) [ALB-112175] | 1.37 | EC50 [1]: 16.9 µM |
| CC(C(=O)OC(C)(C)C)c1ccc(N2Cc3c(cccc3-c3ccc(Cl)c(Cl)c3)C2=O)cc1 (stereo not shown) [ALB-112186] | 1.08 | – |
| CC(C(=O)OC(C)(C)C)c1ccc(N2Cc3c(cccc3-c3ccccc3)C2=O)cc1 (stereo not shown) [ALB-112187] | 1.07 | – |
| Cc1ccc(-c2cccc3c2CN(c2ccc(C(C)C(=O)OC(C)(C)C)cc2)C3=O)cc1 (stereo not shown) [ALB-112188] | 1.08 | – |
